≈ marks a conversion by molar mass, not a printed value.
Experiments:
[1] = test system: L5178Y; test: Induction of apoptosis in human MDR1 gene transfected mouse L5178 Y cells assessed as necrosis at 5 ug/mL after 40 mins; type: functional
[2] = test system: L5178Y; test: Induction of apoptosis in human MDR1 gene transfected mouse L5178 Y cells assessed as total apoptosis at 50 ug/mL after 40 mins; type: functional
[3] = test system: L5178Y; test: Induction of apoptosis in human MDR1 gene transfected mouse L5178 Y cells assessed as early apoptosis at 5 ug/mL after 40 mins; type: functional
[4] = test system: L5178Y; test: Induction of apoptosis in human MDR1 gene transfected mouse L5178 Y cells assessed as early apoptosis at 50 ug/mL after 40 mins; type: functional
[5] = test system: L5178Y; test: Induction of apoptosis in human MDR1 gene transfected mouse L5178 Y cells assessed as necrosis at 50 ug/mL after 40 mins; type: functional
[6] = test system: L5178Y; test: Induction of apoptosis in human MDR1 gene transfected mouse L5178 Y cells assessed as total apoptosis at 5 ug/mL after 40 mins; type: functional
[7] = Antiproliferative activity against human MDR1 gene transfected mouse L5178 Y cells after 72 hrs; type: functional; settings: L5178Y, read-out: ID50 (the source's name)
[8] = target: T1, ATP-dependent translocase ABCB1 (Homo sapiens, UniProt P08183); test: Inhibition of P-gp mediated efflux-pump activity in human MDR1 gene transfected mouse L5178 Y cells at 40 ug/mL by rhodamine 123 accumulation test; type: cell-based
[9] = test system: L5178Y; test: Induction of apoptosis in human MDR1 gene transfected mouse L5178 Y cells assessed as early apoptosis at 75 ug/mL after 40 mins; type: functional
[10] = test system: L5178Y; test: Induction of apoptosis in human MDR1 gene transfected mouse L5178 Y cells assessed as necrosis at 75 ug/mL after 40 mins; type: functional
[11] = target: T1, ATP-dependent translocase ABCB1; test: Inhibition of P-gp mediated efflux-pump activity in human MDR1 gene transfected mouse L5178 Y cells at 4 ug/mL by rhodamine 123 accumulation test; type: cell-based
[12] = test system: L5178Y; test: Induction of apoptosis in human MDR1 gene transfected mouse L5178 Y cells assessed as total apoptosis at 7 ug/mL after 40 mins; type: functional
[13] = test system: L5178Y; test: Induction of apoptosis in human MDR1 gene transfected mouse L5178 Y cells assessed as total apoptosis at 75 ug/mL after 40 mins; type: functional
[14] = test system: L5178Y; test: Induction of apoptosis in human MDR1 gene transfected mouse L5178 Y cells assessed as necrosis at 7 ug/mL after 40 mins; type: functional
[15] = test system: L5178Y; test: Induction of apoptosis in human MDR1 gene transfected mouse L5178 Y cells assessed as early apoptosis at 7 ug/mL after 40 mins; type: functional

T1 sequence (P08183 whole entry): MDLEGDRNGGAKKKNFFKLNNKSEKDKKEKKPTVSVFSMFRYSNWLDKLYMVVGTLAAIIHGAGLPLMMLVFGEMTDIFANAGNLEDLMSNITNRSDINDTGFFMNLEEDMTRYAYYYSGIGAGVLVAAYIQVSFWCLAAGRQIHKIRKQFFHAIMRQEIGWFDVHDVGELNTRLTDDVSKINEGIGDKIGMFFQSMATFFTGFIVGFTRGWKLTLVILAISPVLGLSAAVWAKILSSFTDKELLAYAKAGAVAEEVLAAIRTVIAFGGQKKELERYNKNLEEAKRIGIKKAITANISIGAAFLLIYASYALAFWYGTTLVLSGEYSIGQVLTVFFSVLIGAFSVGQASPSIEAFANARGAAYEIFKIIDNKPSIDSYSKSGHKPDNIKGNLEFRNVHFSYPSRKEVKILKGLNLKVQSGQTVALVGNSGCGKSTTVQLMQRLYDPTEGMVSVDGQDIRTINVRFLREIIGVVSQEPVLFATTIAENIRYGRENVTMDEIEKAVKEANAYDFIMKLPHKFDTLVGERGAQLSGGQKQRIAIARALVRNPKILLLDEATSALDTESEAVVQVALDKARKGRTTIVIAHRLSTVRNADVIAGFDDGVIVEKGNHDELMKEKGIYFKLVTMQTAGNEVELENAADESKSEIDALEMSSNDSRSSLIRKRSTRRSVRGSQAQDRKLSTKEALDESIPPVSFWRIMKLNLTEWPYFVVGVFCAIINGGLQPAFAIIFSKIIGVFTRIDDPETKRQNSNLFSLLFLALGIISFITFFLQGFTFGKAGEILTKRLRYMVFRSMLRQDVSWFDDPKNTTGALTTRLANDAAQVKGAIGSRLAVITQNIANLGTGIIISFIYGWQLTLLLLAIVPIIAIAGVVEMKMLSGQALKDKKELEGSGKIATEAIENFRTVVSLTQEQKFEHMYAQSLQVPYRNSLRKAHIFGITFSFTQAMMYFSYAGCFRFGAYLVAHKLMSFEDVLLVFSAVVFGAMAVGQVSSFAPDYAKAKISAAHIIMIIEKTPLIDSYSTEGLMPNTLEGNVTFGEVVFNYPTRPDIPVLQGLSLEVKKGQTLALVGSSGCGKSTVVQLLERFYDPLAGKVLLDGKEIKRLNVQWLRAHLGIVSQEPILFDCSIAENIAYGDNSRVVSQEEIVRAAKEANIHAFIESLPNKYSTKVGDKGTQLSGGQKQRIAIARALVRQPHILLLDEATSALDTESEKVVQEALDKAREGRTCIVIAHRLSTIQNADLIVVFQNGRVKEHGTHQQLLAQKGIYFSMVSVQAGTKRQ

| Fluorescence intensity [8] | Fluorescence intensity [11] | SMILES | Activity [9] | Activity [10] | Activity [12] | Activity [13] | Activity [14] | Activity [15] | further results |
| --- | --- | --- | --- | --- | --- | --- | --- | --- | --- |
|  |  | c1ccc2c(c1)Nc1c(ccc3ccccc13)S2 |  |  |  |  |  |  | Activity [1]: 16.3%; Activity [2]: 98%; Activity [3]: 1.72%; Activity [4]: 0.02%; Activity [5]: 1.81%; Activity [6]: 65.01% |
|  |  | COc1cccc2c1C(=O)c1c(O)c3c(c(O)c1C2=O)C[C@@](O)(C(=O)CO)C[C@@H]3O[C@H]1C[C@H](N)[C@H](O)[C@H](C)O1 [DOXORUBICIN] |  |  |  |  |  |  | IC50 [7]: 0.35 µg/mL (≈ 0.644 µM) |
|  |  | CC(=O)OC[C@H]1C[C@H](OC(=O)/C=C/c2ccccc2)C(=O)/C(C)=C/[C@@H]2[C@H](CC[C@@]3(C)O[C@@H]3C[C@H]1O)C2(C)C [LATILAGASCENES A] | 33.88% | 2.16% | 22.7% | 55.24% | 0.85% | 7.79% |  |
|  |  | C/C1=C\[C@@H]2[C@H](CC[C@@]3(C)O[C@@H]3C[C@@H](O)[C@@H](CO)C[C@H](OC(=O)/C=C/c3ccccc3)C1=O)C2(C)C [LATILAGASCENES B] | 1.38% | 1.82% | 18.96% | 96.31% | 0.79% | 5.87% | IC50 [7]: 4.58 µg/mL (≈ 9.49 µM) |
|  |  | CC(=O)OC[C@H]1C[C@H](OC(=O)/C=C/c2ccccc2)C(=O)/C(C)=C/[C@@H]2[C@H](CC[C@@]3(C)O[C@@H]3C[C@H]1OC(C)=O)C2(C)C [LATILAGASCENES C] | 1.04% | 3.93% | 21.9% | 41.31% | 0.69% | 7.8% |  |
| 714 | 685.9 | C/C1=C\[C@@H]2[C@H](CC[C@@]3(C)O[C@@H]3C[C@@H](O)[C@@H](COC(=O)c3ccccc3)C[C@H](OC(=O)/C=C/c3ccccc3)C1=O)C2(C)C [LATILAGASCENES D] | 2.96% | 6.83% | 34.7% | 67.97% | 1.54% | 12.7% |  |
| 810.8 | 882.2 | CC1(C)[C@@H]2/C=C(\CO)C(=O)[C@@H](OC(=O)/C=C/c3ccccc3)C[C@H](COC(=O)c3ccccc3)[C@H](O)C[C@H]3O[C@]3(C)CC[C@@H]21 [LATILAGASCENES E] |  |  |  |  |  |  |  |
| 1029.4 | 212.6 | C/C1=C\[C@@H]2[C@H](CC[C@@]3(C)O[C@@H]3C[C@@H](O)[C@@H](C)CC(OC(=O)c3ccccc3)C1=O)C2(C)C (stereo partly specified) [LATILAGASCENES F] |  |  |  |  |  |  |  |

| SMILES | Fluorescence intensity [8] | Fluorescence intensity [11] | Activity [9] | Activity [10] | Activity [12] | Activity [13] | Activity [14] | Activity [15] | further results |
| --- | --- | --- | --- | --- | --- | --- | --- | --- | --- |
| C/C1=C\[C@@H]2[C@H](CC[C@@]3(C)O[C@@H]3[C@H]3[C@@H](O)[C@@H](C)C[C@]3(OC(=O)/C=C/c3ccccc3)C1=O)C2(C)C [JOLKINOL B] | 649.3 | 449.2 | 4.06% | 0.41% | 27% | 38.83% | 1.16% | 6.91% |  |

Source: ChEMBL document CHEMBL1144490, “Apoptosis induction and modulation of P-glycoprotein mediated multidrug resistance by new macrocyclic lathyrane-type diterpenoids” (Bioorg Med Chem, 2007)
